From patent publication US11084800B2 (Achillion Pharmaceuticals, Inc., priority 2017, dated 2021)

target: Human Factor D (Homo sapiens (Human), UniProt P00746); test: Human Factor D Assay; format: biochemical; details: not given
Procedure, shortened: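 Serum-purified Factor D (80 nM final) preincubated 5 min at room temperature with compound in 50 mM Tris, 1 M NaCl, pH 7.5. Z-L-Lys-SBz and DTNB added at 100 μM each; A405 followed every 30 s for 30 min. IC50 from nonlinear regression of rates versus concentration.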

Sequence of Human Factor D (P00746 26-253): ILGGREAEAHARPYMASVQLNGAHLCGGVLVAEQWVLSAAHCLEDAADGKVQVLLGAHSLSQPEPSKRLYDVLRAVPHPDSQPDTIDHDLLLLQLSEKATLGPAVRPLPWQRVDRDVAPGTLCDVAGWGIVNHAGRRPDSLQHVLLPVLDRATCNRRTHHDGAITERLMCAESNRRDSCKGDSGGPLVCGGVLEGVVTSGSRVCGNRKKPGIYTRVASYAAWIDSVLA

Row | Compound | IC50 [µM]
1 | CC(=O)c1nn(CC(=O)N2[C@H](C(=O)NC(Cc3ccccc3)Cc3ccccc3)C[C@@]3(C)C[C@@H]23)c2c(C)cc(-c3cnc(C)nc3)cc12 [Compound 505, (1R,3S,5R)-2-(2-(3-Acetyl-7-methyl-5-(2-methylpyrimidin-5-yl)-1H-indazol-1-yl)acetyl)-N-(1,3-diphenylpropan-2-yl)-5-methyl-2-azabicyclo[3.1.0]hexane-3-carboxamide] | 1 to 10

same assay, conditions: Factor D inhibition, assay of Example 10; read-out: IC5 (Stars)

Row | Compound | IC50 [µM]
2 | CNC(=O)[C@@H]1C[C@@]2(C)C[C@H]2N1C(=O)Cn1nc(C(C)=O)c2cc(-c3cnc(C)nc3)cc(C)c21 [Compound 513, (1R,3S,5R)-2-(2-(3-acetyl-7-methyl-5-(2-methylpyrimidin-5-yl)-1H-indazol-1-yl)acetyl)-N,5-dimethyl-2-azabicyclo[3.1.0]hexane-3-carboxamide] | < 1
3 | CC(=O)c1nn(CC(=O)N2[C@H](C(=O)Nc3cc(CC(=O)O)cc(Br)n3)C[C@@]3(C)C[C@@H]23)c2ccc(-c3cnc(C)nc3)cc12 [Compound 514, 2-(2-((1R,3S,5R)-2-(2-(3-acetyl-5-(2-methylpyrimidin-5-yl)-1H-indazol-1-yl)acetyl)-5-methyl-2-azabicyclo[3.1.0]hexane-3-carboxamido)-6-bromopyridin-4-yl)acetic Acid] | < 1
4 | CCCc1cc(Br)nc(NC(=O)[C@@H]2C[C@@]3(C)C[C@H]3N2C(=O)Cn2nc(C(C)=O)c3cc(-c4cnc(C)nc4)ccc32)c1 [Compound 516, (1R,3S,5R)-2-(2-(3-Acetyl-5-(2-methylpyrimidin-5-yl)-1H-indazol-1-yl)acetyl)-N-(6-bromo-4-propylpyridin-2-yl)-5-methyl-2-azabicyclo[3.1.0]hexane-3-carboxamide] | 1 to 10
5 | CC(=O)c1nn(CC(=O)N2[C@H](C(=O)NC(CC(C)C)CC(C)C)C[C@@]3(C)C[C@@H]23)c2c(C)cc(-c3cnc(C)nc3)cc12 [Compound 517, (1R,3S,5R)-2-(2-(3-acetyl-7-methyl-5-(2-methylpyrimidin-5-yl)-1H-indazol-1-yl)acetyl)-N-(2,6-dimethylheptan-4-yl)-5-methyl-2-azabicyclo[3.1.0]hexane-3-carboxamide] | < 1
6 | CNCCCNC(=O)[C@@H]1C[C@@]2(C)C[C@H]2N1C(=O)Cn1nc(C(C)=O)c2cc(-c3cnc(C)nc3)ccc21 [Compound 519, (1R,3S,5R)-2-(2-(3-acetyl-5-(2-methylpyrimidin-5-yl)-1H-indazol-1-yl)acetyl)-5-methyl-N-(3-(methylamino)propyl)-2-azabicyclo[3.1.0]hexane-3-carboxamide] | 1 to 10
7 | CC(=O)c1nn(CC(=O)N2[C@H](C(=O)NCCCN(C)C)C[C@@]3(C)C[C@@H]23)c2ccc(-c3cnc(C)nc3)cc12 [Compound 520, (1R,3S,5R)-2-(2-(3-acetyl-5-(2-methylpyrimidin-5-yl)-1H-indazol-1-yl)acetyl)-N-(3-(dimethylamino)propyl)-5-methyl-2-azabicyclo[3.1.0]hexane-3-carboxamide] | 1 to 10
8 | CC(=O)c1nn(CC(=O)N2[C@H](C(=O)Nc3nc(Br)ccc3C)C[C@@]3(C)C[C@@H]23)c2c(CO)cc(-c3cnc(C)nc3)cc12 [Compound 526, (1R,3S,5R)-2-(2-(3-Acetyl-7-(hydroxymethyl)-5-(2-methylpyrimidin-5-yl)-1H-indazol-1-yl)acetyl)-N-(6-bromo-3-methylpyridin-2-yl)-5-methyl-2-azabicyclo[3.1.0]hexane-3-carboxamide] | < 1
9 | CC(=O)OCc1cc(-c2cnc(C)nc2)cc2c(C(C)=O)nn(CC(=O)N3[C@H](C(=O)Nc4nc(Br)ccc4C)C[C@@]4(C)C[C@@H]34)c12 [Compound 529, (3-Acetyl-1-(2-((1R,3S,5R)-3-((6-bromo-3-methylpyridin-2-yl)carbamoyl-5-methyl-2-azabicyclo[3.1.0]hexan-2-yl)-2-oxoethyl)-5-(2-methylpyrimidin-5-yl)-1H-indazol-7-yl)methyl acetate] | < 1
10 | CCc1cc(Br)nc(NC(=O)[C@@H]2C[C@@]3(C)C[C@H]3N2C(=O)Cn2nc(C(C)=O)c3cc(-c4cnc(C)nc4)ccc32)c1 [Compound 532, (1R,3S,5R)-2-(2-(3-acetyl-5-(2-methylpyrimidin-5-yl)-1H-indazol-1-yl)acetyl)-N-(6-bromo-4-ethylpyridin-2-yl)-5-methyl-2-azabicyclo[3.1.0]hexane-3-carboxamide] | < 1
11 | CC(=O)c1nn(CC(=O)N2[C@H](C(=O)NC(CCc3ccccc3)(CCc3ccccc3)C(=O)O)C[C@@]3(C)C[C@@H]23)c2c(C)cc(-c3cnc(C)nc3)cc12 [Compound 533, 2-((1R,3S,5R)-2-(2-(3-acetyl-7-methyl-5-(2-methylpyrimidin-5-yl)-1H-indazol-1-yl)acetyl)-5-methyl-2-azabicyclo[3.1.0]hexane-3-carboxamido)-2-phenethyl-4-phenylbutanoic acid] | > 10
12 | CC(=O)c1nn(CC(=O)N2[C@H](C(=O)Nc3cc(CC(N)=O)cc(Br)n3)C[C@@]3(C)C[C@@H]23)c2ccc(-c3cnc(C)nc3)cc12 [Compound 534, (1R,3S,5R)-2-(2-(3-acetyl-5-(2-methylpyrimidin-5-yl)-1H-indazol-1-yl)acetyl)-N-(4-(2-amino-2-oxoethyl)-6-bromopyridin-2-yl)-5-methyl-2-azabicyclo[3.1.0]hexane-3-carboxamide] | < 1
13 | CC(=O)c1nn(CC(=O)N2[C@H](C(=O)Nc3cc(C(C)C)cc(Br)n3)C[C@@]3(C)C[C@@H]23)c2ccc(-c3cnc(C)nc3)cc12 [Compound 541, (1R,3S,5R)-2-(2-(3-acetyl-5-(2-methylpyrimidin-5-yl)-1H-indazol-1-yl)acetyl)-N-(6-bromo-4-isopropylpyridin-2-yl)-5-methyl-2-azabicyclo[3.1.0]hexane-3-carboxamide] | < 1
14 | CC(=O)c1nn(CC(=O)N2[C@H](C(=O)Nc3cc(CC(C)C)cc(Br)n3)C[C@@]3(C)C[C@@H]23)c2ccc(-c3cnc(C)nc3)cc12 [Compound 542, (1R,3S,5R)-2-(2-(3-acetyl-5-(2-methylpyrimidin-5-yl)-1H-indazol-1-yl)acetyl)-N-(6-bromo-4-isobutylpyridin-2-yl)-5-methyl-2-azabicyclo[3.1.0]hexane-3-carboxamide] | < 1

same assay, conditions: Table 8; Factor D 80 nM, substrate Z-L-Lys-SBz; read-out: IC50

Row | Compound | IC50 [µM]
15 | Cc1ncc(-c2cc(C#N)c3c(c2)c(C(N)=O)nn3CC(=O)N2[C@H](C(=O)Nc3nc(Br)ccc3C)C[C@@]3(C)C[C@@H]23)cn1 [Compound 515] | < 1
16 | CCCCCCCNC(=O)[C@@H]1C[C@@]2(C)C[C@H]2N1C(=O)Cn1nc(C(C)=O)c2cc(-c3cnc(C)nc3)cc(C)c21 [Compound 527, (1R,3S,5R)-2-(2-(3-acetyl-7-methyl-5-(2-methylpyrimidin-5-yl)-1H-indazol-1-yl)acetyl)-N-heptyl-5-methyl-2-azabicyclo[3.1.0]hexane-3-carboxamide] | < 1
17 | CCCCCCCCNC(=O)[C@@H]1C[C@@]2(C)C[C@H]2N1C(=O)Cn1nc(C(C)=O)c2cc(-c3cnc(C)nc3)cc(C)c21 [Compound 528, (1R,3S,5R)-2-(2-(3-acetyl-7-methyl-5-(2-methylpyrimidin-5-yl)-1H-indazol-1-yl)acetyl)-5-methyl-N-octyl-2-azabicyclo[3.1.0]hexane-3-carboxamide] | 1 to 10
18 | CCCCCCCCCNC(=O)[C@@H]1C[C@@]2(C)C[C@H]2N1C(=O)Cn1nc(C(C)=O)c2cc(-c3cnc(C)nc3)cc(C)c21 [Compound 530, (1R,3S,5R)-2-(2-(3-acetyl-7-methyl-5-(2-methylpyrimidin-5-yl)-1H-indazol-1-yl)acetyl)-5-methyl-N-nonyl-2-azabicyclo[3.1.0]hexane-3-carboxamide] | 1 to 10
19 | CCCCCCCCCCNC(=O)[C@@H]1C[C@@]2(C)C[C@H]2N1C(=O)Cn1nc(C(C)=O)c2cc(-c3cnc(C)nc3)cc(C)c21 [Compound 531, (1R,3S,5R)-2-(2-(3-acetyl-7-methyl-5-(2-methylpyrimidin-5-yl)-1H-indazol-1-yl)acetyl)-N-decyl-5-methyl-2-azabicyclo[3.1.0]hexane-3-carboxamide] | > 10
20 | CCCCCCCCCCCCCCCC(=O)NCCCC[C@H](NC(=O)[C@H](CCC(=O)O)NC(=O)[C@H](Cc1ccc(O)cc1)NC(=O)[C@H](CCC(=O)O)NC(C)=O)C(=O)N[C@@H](CCC(=O)O)C(=O)N[C@@H](Cc1ccc(O)cc1)C(=O)N[C@@H](CCC(=O)O)C(=O)NCCOCCOCCOCCOCCOCCOCCOCCOCCOCCOCCOCCOCCOCCOCCOCCOCCOCCOCCOCCOCCOCCOCCOCCOCCC(=O)NC[C@@]12C[C@@H](C(=O)Nc3nc(Br)ccc3C)N(C(=O)Cn3nc(C(C)=O)c4cc(-c5cnc(C)nc5)cc(C)c43)[C@@H]1C2 [Compound 535] | 1 to 10
21 | CC(=O)c1nn(CC(=O)N2[C@H](C(=O)NCCCCc3ccccc3)C[C@@]3(C)C[C@@H]23)c2c(C)cc(-c3cnc(C)nc3)cc12 [Compound 538, (1R,3S,5R)-2-(2-(3-acetyl-7-methyl-5-(2-methylpyrimidin-5-yl)-1H-indazol-1-yl)acetyl)-5-methyl-N-(4-phenylbutyl)-2-azabicyclo[3.1.0]hexane-3-carboxamide] | < 1
22 | CC(=O)c1nn(CC(=O)N2[C@H](C(=O)NCCCCCc3ccccc3)C[C@@]3(C)C[C@@H]23)c2c(C)cc(-c3cnc(C)nc3)cc12 [Compound 539, (1R,3S,5R)-2-(2-(3-acetyl-7-methyl-5-(2-methylpyrimidin-5-yl)-1H-indazol-1-yl)acetyl)-5-methyl-N-(5-phenylpentyl)-2-azabicyclo[3.1.0]hexane-3-carboxamide] | < 1
23 | CC(=O)c1nn(CC(=O)N2[C@H](C(=O)NCCCCCCc3ccccc3)C[C@@]3(C)C[C@@H]23)c2c(C)cc(-c3cnc(C)nc3)cc12 [Compound 540, (1R,3S,5R)-2-(2-(3-acetyl-7-methyl-5-(2-methylpyrimidin-5-yl)-1H-indazol-1-yl)acetyl)-5-methyl-N-(6-phenylhexyl)-2-azabicyclo[3.1.0]hexane-3-carboxamide] | 1 to 10
